Read-outs that look alike come from different tables or passages of the source.
Biological target: T1, HCV NS3 helicase (Hepatitis C virus genotype 1b, UniProt P26663)
T1 construct: full-length NS3 (1-631), purified at Array BioPharma
Assay: HCV Helicase Prompt FRET Assay (Example A)
Type: biochemical
Conditions: read-out: IC50 Activity
Method in brief: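 Initial unwinding rates, monitored as FAM fluorescence gain (ex 485, em 535) over ~30 min at room temperature, gave IC50 via 4- or 5-parameter logistic fits. Reactions: 50 nM quenched duplex, 250 nM capture strand, 300 μM ATP, 5–6 nM NS3 1-631 after 5 min compound preincubation, MOPS pH 7.0 buffer, 2% DMSO.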

[1] = Table 36, compounds made using Scheme 54
[2] = Table 38, compounds made using Scheme 56, Scheme 57 and Scheme 61
[3] = HCV NS3 helicase, tables do not say whether Example A or Example B assay
[4] = Table 37, compounds made using Scheme 55

T1 sequence (P26663 1027-1657): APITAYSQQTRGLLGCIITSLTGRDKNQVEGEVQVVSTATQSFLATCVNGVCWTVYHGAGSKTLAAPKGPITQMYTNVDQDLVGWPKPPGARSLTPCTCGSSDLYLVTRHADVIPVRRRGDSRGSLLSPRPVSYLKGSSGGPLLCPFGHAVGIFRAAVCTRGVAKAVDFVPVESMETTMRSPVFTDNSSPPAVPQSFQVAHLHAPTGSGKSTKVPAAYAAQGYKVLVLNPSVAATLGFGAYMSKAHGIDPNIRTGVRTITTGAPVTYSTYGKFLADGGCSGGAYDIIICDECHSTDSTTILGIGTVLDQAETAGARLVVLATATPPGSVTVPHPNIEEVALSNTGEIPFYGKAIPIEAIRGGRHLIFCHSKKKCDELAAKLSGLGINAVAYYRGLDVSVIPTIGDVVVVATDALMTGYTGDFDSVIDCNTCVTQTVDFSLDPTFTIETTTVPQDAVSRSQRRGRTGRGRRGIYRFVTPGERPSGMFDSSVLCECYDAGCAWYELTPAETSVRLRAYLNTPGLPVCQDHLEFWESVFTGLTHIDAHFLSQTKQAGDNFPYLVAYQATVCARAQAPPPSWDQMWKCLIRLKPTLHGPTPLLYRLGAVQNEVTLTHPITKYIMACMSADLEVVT

How did the IC50 [1] turn out when `CCOC(=O)Cc1cn(Cc2c(-c3cccc(Cl)c3)sc3ccccc23)c2cc(-c3cc([N+](=O)[O-])cc([N+](=O)[O-])c3)ccc12` [Example 714] was run?
The IC50 was 10 to 50 µM.

`Nc1cc(N)cc(-c2ccc3c(CC(=O)O)cn(Cc4c(-c5cccc(Cl)c5)sc5ccccc45)c3c2)c1` [Example 715] was tested. Which IC50 [1] did it give?
Its IC50 is < 10 µM.

With `CCOC(=O)Cc1cn(Cc2csc3ccc(OC(F)(F)F)cc23)c2cc(-c3cc([N+](=O)[O-])cc([N+](=O)[O-])c3)ccc12` [Example 717] as the molecule, how does the IC50 [1] read?
The IC50 was 10 to 50 µM.

How did the IC50 [1] turn out when `CCOC(=O)Cc1cn(Cc2csc3ccc(OC(F)(F)F)cc23)c2cc(-c3cc(N)cc(N)c3)ccc12` [Example 718] was run?
Its IC50 is 10 to 50 µM.

`Nc1cc(N)cc(-c2ccc3c(CC(=O)O)cn(Cc4csc5ccc(OC(F)(F)F)cc45)c3c2)c1` [Example 719] was tested. Which IC50 [1] did it give?
The IC50 was 10 to 50 µM.

With `CCOC(=O)Cc1cn(Cc2c(CC)sc3ccc(Cl)cc23)c2cc(-c3cc([N+](=O)[O-])cc([N+](=O)[O-])c3)ccc12` [Example 720] as the molecule, how does the IC50 [1] read?
The IC50 was > 50 µM.

For `CCc1sc2ccc(Cl)cc2c1Cn1cc(CC(=O)O)c2ccc(-c3cc(N)cc(N)c3)cc21` [Example 721], which IC50 [1] is on record?
Its IC50 is < 10 µM.

Which IC50 [1] does the source give for `COc1cc(Cl)cc2c(Cn3cc(CC(=O)O)c4ccc(-c5cc(N)cc(N)c5)cc43)csc12` [Example 722] here?
The IC50 was 10 to 50 µM.

Which IC50 [1] does the source give for `Nc1cc(N)cc(-c2ccc3c(CC(=O)O)cn(Cc4csc5cc(Cl)c(F)cc45)c3c2)c1` [Example 723] here?
Its IC50 is < 10 µM.

For `Nc1cc(N)cc(-c2ccc3c(CC(=O)O)cn(Cc4csc5c(Cl)c(Cl)ccc45)c3c2)c1` [Example 724], which IC50 [1] is on record?
The IC50 was 10 to 50 µM.

With `Nc1cc(N)cc(-c2ccc3c(CC(=O)O)cn(Cc4csc5c(Cl)cccc45)c3c2)c1` [Example 725] as the molecule, how does the IC50 [1] read?
Its IC50 is 10 to 50 µM.

Which IC50 [1] does the source give for `Nc1cc(N)cc(-c2ccc3c(CC(=O)O)cn(Cc4csc5c(Cl)cc(F)cc45)c3c2)c1` [Example 726] here?
The IC50 was < 10 µM.

Which IC50 [1] does the source give for `Nc1cc(N)cc(-c2ccc3c(CC(=O)O)cn(Cc4csc5cccc(Cl)c45)c3c2)c1` [Example 727] here?
The IC50 was < 10 µM.

How did the IC50 [1] turn out when `Nc1cc(N)cc(-c2ccc3c(CC(=O)O)cn(Cc4csc5cc(Cl)ccc45)c3c2)c1` [Example 728] was run?
Its IC50 is < 10 µM.

How did the IC50 [2] turn out when `CN(C=O)c1cc(Cl)cc2c(Cn3cc(CC(=O)O)c4ccc(-c5cc(N)cc(N)c5)cc43)csc12` [Example 729] was run?
Its IC50 is 10 to 50 µM.

How did the IC50 [2] turn out when `CN(c1cc(Cl)cc2c(Cn3cc(CC(=O)O)c4ccc(-c5cc(N)cc(N)c5)cc43)csc12)S(C)(=O)=O` [Example 730] was run?
Its IC50 is 10 to 50 µM.

Which IC50 [2] does the source give for `CCNc1cc(Cl)cc2c(Cn3cc(CC(=O)O)c4ccc(-c5cc(N)cc(N)c5)cc43)csc12` [Example 731] here?
Its IC50 is < 10 µM.

Which IC50 [2] does the source give for `CCN(C)c1cc(Cl)cc2c(Cn3cc(CC(=O)O)c4ccc(-c5cc(N)cc(N)c5)cc43)csc12` [Example 732] here?
Its IC50 is < 10 µM.

Which IC50 (Table 35, compounds made using Scheme 53) does the source give for `Nc1cc(N)cc(-c2ccc3c(CC(=O)O)cn(Cc4csc5ccc(Br)cc45)c3c2)c1` [Example 734] here?
Its IC50 is 10 to 50 µM.

For `Nc1cc(N)cc(-c2ccc3c(CC(=O)O)cn(Cc4nc5ccccc5s4)c3c2)c1` [Example 735], which IC50 [1] is on record?
Its IC50 is > 50 µM.

`CC(=O)c1c(CC(=O)O)c2ccccc2n1-c1ccc(N(C)Cc2ccccc2)cc1` [Example 737] was tested. Which IC50 [3] did it give?
Its IC50 is 10 to 50 µM.

How did the IC50 [3] turn out when `CN(Cc1ccccc1)c1ccc(-n2c(C(=O)c3ccc(-c4ccc(Cl)c(Cl)c4)cc3)c(CC(=O)O)c3ccccc32)cc1` [Example 738] was run?
The IC50 was 10 to 50 µM.

Which IC50 [3] does the source give for `O=C(O)Cc1c(Cc2ccc(-c3ccccc3Cl)cc2)[nH]c2ccc(Br)cc12` [Example 739] here?
The IC50 was 10 to 50 µM.

With `O=C(O)Cc1cn(Cc2csc3ccc(Cl)cc23)c2cc(-c3ccnc(Cl)c3)ccc12` [Example 740] as the molecule, how does the IC50 [3] read?
Its IC50 is 10 to 50 µM.

How did the IC50 [3] turn out when `O=C(O)Cc1cn(Cc2csc3ccc(Cl)cc23)c2cc(-c3ccnc(NCCO)c3)ccc12` [Example 741] was run?
Its IC50 is < 10 µM.

With `OC1CCCN(c2ccc3ccn(Cc4csc5ccc(Cl)cc45)c3c2)C1` (stereo not shown) [Example 742] as the molecule, how does the IC50 [3] read?
The IC50 was 10 to 50 µM.

With `O=C(O)Cc1cn(Cc2csc3ccc(Cl)cc23)c2cc(-c3cccnc3)ccc12` [Example 743] as the molecule, how does the IC50 [3] read?
Its IC50 is 10 to 50 µM.

For `O=C(O)C(=O)c1cn(Cc2csc3ccc(Cl)cc23)c2cc(N3CCCC(O)C3)ccc12` (stereo not shown) [Example 744], which IC50 [3] is on record?
Its IC50 is < 10 µM.

`COc1cccc(-c2ccc3c(CC(=O)O)cn(Cc4csc5ccc(Cl)cc45)c3c2)c1` [Example 746] was tested. Which IC50 [4] did it give?
Its IC50 is > 50 µM.

Which IC50 [3] does the source give for `O=C(O)Cc1cn(Cc2csc3ccc(Cl)cc23)c2cc(N3CCCC(O)C3)ccc12` (stereo not shown) [Example 746] here?
Its IC50 is 10 to 50 µM.

For `COc1ccccc1-c1ccc2c(CC(=O)O)cn(Cc3csc4ccc(Cl)cc34)c2c1` [Example 747], which IC50 [4] is on record?
The IC50 was > 50 µM.

With `Nc1cc(-c2ccc3c(CC(=O)O)cn(Cc4csc5ccc(Cl)cc45)c3c2)ccn1` [Example 747] as the molecule, how does the IC50 [3] read?
The IC50 was 10 to 50 µM.

How did the IC50 [4] turn out when `Cc1ccc(-c2ccc3c(CC(=O)O)cn(Cc4csc5ccc(Cl)cc45)c3c2)cc1` [Example 751] was run?
Its IC50 is > 50 µM.

How did the IC50 [4] turn out when `Cc1cccc(-c2ccc3c(CC(=O)O)cn(Cc4csc5ccc(Cl)cc45)c3c2)c1` [Example 752] was run?
The IC50 was 10 to 50 µM.

Which IC50 [4] does the source give for `O=C(O)Cc1cn(Cc2csc3ccc(Cl)cc23)c2cc(-c3ccc(Cl)cc3)ccc12` [Example 753] here?
Its IC50 is > 50 µM.

`O=C(O)Cc1cn(Cc2csc3ccc(Cl)cc23)c2cc(-c3cccc(Cl)c3)ccc12` [Example 754] was tested. Which IC50 [4] did it give?
The IC50 was > 50 µM.

With `N#Cc1ccccc1-c1ccc2c(CC(=O)O)cn(Cc3csc4ccc(Cl)cc34)c2c1` [Example 755] as the molecule, how does the IC50 [4] read?
Its IC50 is > 50 µM.

With `N#Cc1cccc(-c2ccc3c(CC(=O)O)cn(Cc4csc5ccc(Cl)cc45)c3c2)c1` [Example 756] as the molecule, how does the IC50 [4] read?
The IC50 was 10 to 50 µM.

Which IC50 [4] does the source give for `N#Cc1ccc(-c2ccc3c(CC(=O)O)cn(Cc4csc5ccc(Cl)cc45)c3c2)cc1` [Example 757] here?
The IC50 was 10 to 50 µM.

`O=C(O)Cc1cn(Cc2csc3ccc(Cl)cc23)c2cc(-c3ccccc3F)ccc12` [Example 758] was tested. Which IC50 [4] did it give?
Its IC50 is > 50 µM.

With `O=C(O)Cc1cn(Cc2csc3ccc(Cl)cc23)c2cc(-c3cccc(F)c3)ccc12` [Example 759] as the molecule, how does the IC50 [4] read?
The IC50 was > 50 µM.

With `O=C(O)Cc1cn(Cc2csc3ccc(Cl)cc23)c2cc(-c3cccc(CO)c3)ccc12` [Example 760] as the molecule, how does the IC50 [4] read?
The IC50 was 10 to 50 µM.

With `CN(C)C(=O)c1cccc(-c2ccc3c(CC(=O)O)cn(Cc4csc5ccc(Cl)cc45)c3c2)c1` [Example 761] as the molecule, how does the IC50 [4] read?
The IC50 was 10 to 50 µM.

`NC(=O)c1ccccc1-c1ccc2c(CC(=O)O)cn(Cc3csc4ccc(Cl)cc34)c2c1` [Example 762] was tested. Which IC50 [4] did it give?
Its IC50 is > 50 µM.

With `NC(=O)c1cccc(-c2ccc3c(CC(=O)O)cn(Cc4csc5ccc(Cl)cc45)c3c2)c1` [Example 763] as the molecule, how does the IC50 [4] read?
The IC50 was 10 to 50 µM.

`O=C(O)Cc1cn(Cc2csc3ccc(Cl)cc23)c2cc(-c3ccncc3)ccc12` [Example 764] was tested. Which IC50 [4] did it give?
Its IC50 is 10 to 50 µM.

`Nc1cccc(-c2ccc3c(CC(=O)O)cn(Cc4csc5ccc(Cl)cc45)c3c2)c1` [Example 765] was tested. Which IC50 [4] did it give?
The IC50 was < 10 µM.

With `CC(=O)Nc1cccc(-c2ccc3c(CC(=O)O)cn(Cc4csc5ccc(Cl)cc45)c3c2)c1` [Example 766] as the molecule, how does the IC50 [4] read?
Its IC50 is 10 to 50 µM.

How did the IC50 [4] turn out when `NC(=O)Nc1cccc(-c2ccc3c(CC(=O)O)cn(Cc4csc5ccc(Cl)cc45)c3c2)c1` [Example 767] was run?
Its IC50 is 10 to 50 µM.

Which IC50 [4] does the source give for `CC(=O)Nc1ccccc1-c1ccc2c(CC(=O)O)cn(Cc3csc4ccc(Cl)cc34)c2c1` [Example 768] here?
The IC50 was 10 to 50 µM.

Which IC50 [4] does the source give for `NC(=O)Nc1ccccc1-c1ccc2c(CC(=O)O)cn(Cc3csc4ccc(Cl)cc34)c2c1` [Example 769] here?
Its IC50 is > 50 µM.

`Cc1sc2ccc(Cl)cc2c1Cn1cc(CC(=O)O)c2ccc(-c3ccccc3)cc21` [Example 770] was tested. Which IC50 [4] did it give?
The IC50 was < 10 µM.

With `CCOC(=O)Cc1cn(Cc2csc3c(N(C=O)CC)cc(Cl)cc23)c2cc(Br)ccc12` [Example 771] as the molecule, how does the IC50 [2] read?
Its IC50 is > 50 µM.

With `CCNc1cc(Cl)cc2c(Cn3cc(CC(=O)O)c4ccc(Br)cc43)csc12` [Example 772] as the molecule, how does the IC50 [2] read?
The IC50 was > 50 µM.

How did the IC50 [2] turn out when `CC(C)(C)OC(=O)N(c1cc(Cl)cc2c(Cn3cc(CC(=O)O)c4ccc(Br)cc43)csc12)C1CC1` [Example 773] was run?
Its IC50 is > 50 µM.
